# Measured values as given in patent US7858796B2, “Chemical compounds” (Glaxo Group Limited, priority 2004, dated 2010).
# Tested on: human monocyte stimulated cytokine production (TNF-α)
# Assay: Monocyte Assay (LPS-stimulated TNF-α production)
# Type: cell-based
# Settings: human CD14+ monocytes, 200 ng/mL LPS, 24 hrs, TNF-α by ELISA
# Procedure: Effect of IKK-β inhibition on human monocyte stimulated cytokine production was assessed as follows: Monocytes were isolated from heparinized whole blood by Ficoll gradient, followed by purification of CD14+ cells using MACS magnetic cell separation beads. Isolated monocytes were then adhered to 96-well culture plates at 1×10^6 cells/mL in RPMI 1640 10% FBS (JRH Biosciences, Lenexa Kans.) for 2 h. to further enrich the monocyte population. The media was then removed, cells washed once with RPMI 1640, and 0.125 mL RPMI 1640 10% FBS was added to the wells. Test compounds are added to the wells 30 minutes prior to stimulation with a final vehicle concentration of 0.1% DMSO. Monocytes were activated by the addition of 200 ng/mL endotoxin (LPS; E. coli serotype 026:B6) (Sigma, St. Louis, Mo.) and incubated for 24 hrs at 37 C. Cell-free supernates were analyzed by ELISA for TNF-α using Pharmingen matched pair Abs. Viability of the cells was determined by10% trypan blue exclusion.
row,IC50 [µM],Compound
1,< 10,"NC(=O)c1cc(-c2ccsc2)cc2c(C3CCN(S(=O)(=O)CCCN4CCOCC4)CC3)c[nH]c12 [Example 74, 3-(1-{[3-(4-morpholinyl)propyl]sulfonyl}-4-piperidinyl)-5-(3-thienyl)-1H-indole-7-carboxamide]"
2,< 10,"NC(=O)c1cc(-c2ccc(F)cc2)cc2c(C3CCN(S(=O)(=O)CCCN4CCCC4)CC3)c[nH]c12 [Example 75, 5-(4-fluorophenyl)-3-(1-{[3-(1-pyrrolidinyl)propyl]sulfonyl}-4-piperidinyl)-1H-indole-7-carboxamide]"
3,< 10,"CN(C)CCCS(=O)(=O)N1CCC(c2c[nH]c3c(C(N)=O)cc(-c4cccc(CO)c4)cc23)CC1 [Example 76, 3-(1-{[3-(dimethylamino)propyl]sulfonyl}-4-piperidinyl)-5-[3-(hydroxymethyl)phenyl]-1H-indole-7-carboxamide]"
4,< 10,"NC(=O)c1cc(-c2cccc(CO)c2)cc2c(C3CCN(S(=O)(=O)CCCN4CCCC4)CC3)c[nH]c12 [Example 83, 5-[3-(hydroxymethyl)phenyl]-3-(1-{[3-(1-pyrrolidinyl)propyl]sulfonyl}-4-piperidinyl)-1H-indole-7-carboxamide]"
5,< 10,"CCNCc1cccc(-c2cc(C(N)=O)c3[nH]cc(C4CCN(S(=O)(=O)CCCN(C)C)CC4)c3c2)c1 [Example 96, 3-(1-{[3-(dimethylamino)propyl]sulfonyl}-4-piperidinyl)-5-{3-[(ethylamino)methyl]phenyl}-1H-indole-7-carboxamide]"
6,< 10,"CC(C)(C)OC(=O)N1CCC(NCCCS(=O)(=O)N2CCC(c3c[nH]c4c(C(N)=O)cc(-c5ccccc5)cc34)CC2)CC1 [Example 108, 1,1-dimethylethyl 4-{[3-({4-[7-(aminocarbonyl)-5-phenyl-1H-indol-3-yl]-1-piperidinyl}sulfonyl)propyl]amino}-1-piperidinecarboxylate]"
7,< 10,"NC(=O)c1cc(-c2ccccc2)cc2c(C3CCN(S(=O)(=O)CCCNC4CCNCC4)CC3)c[nH]c12 [Example 109, 5-phenyl-3-(1-{[3-(4-piperidinylamino)propyl]sulfonyl}-4-piperidinyl)-11 indole-7-carboxamide]"
8,< 10,"COCCCS(=O)(=O)N1CCC(c2c[nH]c3c(C(N)=O)cc(-c4ccccc4)cc23)CC1 [Example 160, 3-(1-{[3-(methyloxy)propyl]sulfonyl}-4-piperidinyl)-5-phenyl-1H-indole-7-carboxamide]"
9,< 10,"NC(=O)c1cc(-c2ccccc2)cc2c(C3CCN(S(=O)(=O)CCCOCC4CC4)CC3)c[nH]c12 [Example 164, 3-[1-({3-[(cyclopropylmethyl)oxy]propyl}sulfonyl)-4-piperidinyl]-5-phenyl-1H-indole-7-carboxamide]"
10,< 10,"CC(O)C(C)OCCCS(=O)(=O)N1CCC(c2c[nH]c3c(C(N)=O)cc(-c4ccccc4)cc23)CC1 (centres unmarked) [Example 165, 3-[1-({3-[(2-hydroxy-1-methylpropyl)oxy]propyl}sulfonyl)-4-piperidinyl]-5-phenyl-1H-indole-7-carboxamide]"
11,< 10,"NC(=O)c1cc(-c2ccccc2)cc2c(C3CCN(S(=O)(=O)CCCO)CC3)c[nH]c12 [Example 174, 3-{1-[(3-hydroxypropyl)sulfonyl]-4-piperidinyl}-5-phenyl-1H-indole-7-carboxamide]"
12,< 10,"CCOCCS(=O)(=O)N1CCC(c2c[nH]c3c(C(N)=O)cc(-c4ccccc4)cc23)CC1 [Example 175, 3-(1-{[2-(ethyloxy)ethyl]sulfonyl}-4-piperidinyl)-5-phenyl-1H-indole-7-carboxamide]"
13,< 10,"CCOCCCS(=O)(=O)N1CCC(c2c[nH]c3c(C(N)=O)cc(-c4ccccc4)cc23)CC1 [Example 176, 3-(1-{[3-(ethyloxy)propyl]sulfonyl}-4-piperidinyl)-5-phenyl-1H-indole-7-carboxamide]"
14,< 10,"NC(=O)c1cc(-c2ccccc2)cc2c(C3CCN(S(=O)(=O)CCOCCN4CCCCC4)CC3)c[nH]c12 [Example 178, 5-phenyl-3-{1-[(2-{[2-(1-piperidinyl)ethyl]oxy}ethyl)sulfonyl]-4-piperidinyl}-1H-indole-7-carboxamide]"
